# Assay results as given in US7625875B2 (priority 2002, dated 2009).
# What was measured:
# CVB-2 = assay: organism not typed; assay type: cell-based, Coxsackie B-2 virus; settings: read-out: EC50 CVB-2
# REO-1 = assay: microbe, parasite or virus in culture; assay type: cell-based, double-stranded RNA Reovirus; settings: Reovirus sp., read-out: REO
# DENV-2 = assay: microbe, parasite or virus in culture; assay type: cell-based; settings: Dengue virus, DENV2, read-out: composite EC50 range
# VZV = assay: Antiviral activity, VZV (HFF); assay type: cell-based; settings: Human alphaherpesvirus 3
# Influenza B = assay: Antiviral activity, Influenza B (MDCK); assay type: cell-based; settings: Influenza B virus
# Parainfluenza type 3 = assay: Antiviral activity, Parainfluenza type 3 (MA-104); assay type: cell-based; settings: MA104
# RSV type A = assay: Antiviral activity, RSV type A (MA-104); assay type: cell-based; settings: human respiratory syncytial virus, MA104
# Punta Toro A = assay: organism not typed; assay type: cell-based; settings: LLC-MK2
# BVDV RNA = assay: Intracellular BVDV RNA by Real Time RT-PCR in de novo-infected MDBK cells; assay type: cell-based, bovine viral diarrhea virus
# in vitro = settings: hamster
# [1] = system: MEF mouse embryo fibroblasts; assay: Cytotoxicity assay, MEF; settings: MCMV (MEF) line
compound,measurement,setting,value
"CC1(O)C(O)C(CO)OC1n1ccc(N)nc1=O (stereo not drawn) [mCyd, 4-Amino-1-(3,4-dihydroxy-5-hydroxymethyl-3-methyl-tetrahydro-furan-2-yl)-1H-pyrimidine-2-one]",EC50,CVB-2,11 µM
same,EC50,REO-1,13 µM
same,EC50,DENV-2,59 to 95 µM
same,EC50,VZV,> 20 µg/mL
same,EC50,Influenza B,> 200 µM
same,EC50,Parainfluenza type 3,> 200 µM
same,EC50,RSV type A,> 200 µM
same,EC50,Punta Toro A,> 200 µM
same,effect on the level of the rig S15 cellular mRNA control,BVDV RNA,No effect
same,maximum viral RNA reduction,BVDV RNA; highest inhibitor concentration tested (125 μM),4 log10
same,CC50,in vitro,> 100 µM
same,CC50,[1],2.4 µM
